Where a chain is given by its changes, count along the chain named. “Also recorded” adds a separate entry of the source.
Key:
SR-BI = target: T1, SR-BI (Mus musculus, UniProt Q61009); experiment: DiI-HDL uptake assay with washout; format: cell-based, murine; set-up: expressed in transfected cells; host or cells: ldlA[mSR-BI], Chinese hamster ovary (CHO) cells lacking LDL receptor (Krieger Laboratory); conditions: compound pretreatment, wash, DiI-HDL without compound
T1 sequence (Q61009 1-509): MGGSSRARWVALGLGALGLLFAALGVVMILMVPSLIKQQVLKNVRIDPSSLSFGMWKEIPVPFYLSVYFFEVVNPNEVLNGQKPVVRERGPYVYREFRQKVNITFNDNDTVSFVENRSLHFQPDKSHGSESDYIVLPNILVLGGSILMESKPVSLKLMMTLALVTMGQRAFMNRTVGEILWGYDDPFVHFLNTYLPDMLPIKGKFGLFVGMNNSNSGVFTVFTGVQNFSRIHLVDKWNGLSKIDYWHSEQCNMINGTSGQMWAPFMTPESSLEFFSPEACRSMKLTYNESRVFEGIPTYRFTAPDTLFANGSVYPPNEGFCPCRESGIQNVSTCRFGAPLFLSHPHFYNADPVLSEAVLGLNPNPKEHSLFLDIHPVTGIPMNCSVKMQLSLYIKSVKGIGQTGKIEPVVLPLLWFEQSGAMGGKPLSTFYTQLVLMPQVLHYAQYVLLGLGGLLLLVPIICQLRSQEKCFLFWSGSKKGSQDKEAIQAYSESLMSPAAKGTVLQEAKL
Description: DiI-HDL Uptake Assay with Washout (SA 5: AID No. 588831)
This is a modification of the primary assay where cells are pretreated with compound but no compound is present during the DiI-HDL treatment period. ldlA[mSR-BI] cells were plated into 384-well plates at 30 μl per well and incubated overnight. Cells were treated with compound for 3 hours, then media were removed and the cells were washed with PBS before fresh lipoprotein-free media (Ham's F12/0.5% fatty acid-free Bovine Serum Albumin [BSA]/25 mM HEPES pH 7.4) was added with 10 μg protein/ml DiI-HDL. Cells took up the DiI via SR-BI over 3 hours in the absence of compound. After significant uptake of the DiI, the cells became fluorescent. The level of fluorescence correlates with the amount of DiI uptake and can be measured with a standard plate reader. The uptake of lipid (represented by DiI) was inhibited by the compound BLT-1.

ldlA[mSR-BI] cells = experiment: Cell cytotoxicity assay (CellTiter-Glo); conditions: ldlA[mSR-BI] cells
Description: It is possible that a compound will cause cells to decrease HDL-mediated DiI uptake due to nonspecific consequences of cellular toxicity, representing a second class of false positive hits. The cells were treated with compounds for 3 hours or 24 hours, and then cell viability was measured using the CellTiter-Glo Assay (Promega), a luciferase-based reagent that measures cellular ATP levels. The compounds were tested at different concentrations to determine IC50 values. […] Data were normalized against DMSO and the positive control (1 μM BLT-1) in Genedata Assay Analyzer.
All available dry powder samples of the remaining, non-quenching compounds were procured from commercial sources and purities were determined. The compounds obtained were then retested in the primary assay and in cytotoxicity assays. We wanted to rule out any compounds that were cytotoxic, especially in the 3-hour time span of the primary DiI-HDL uptake assay. Therefore, compounds were tested in ldl[mSR-BI] cells for cytotoxicity at 3 hours and 24 hours using the CellTiter-Glo assay (Promega) that measures cellular ATP as a marker of cell viability. […] Compounds were screened for inhibition of endocytosis using labeled transferrin, which is known to bind the transferrin receptor, enter cells by clathrin-mediated endocytosis, and move to endosomes before being recycled to the cell surface.

[1] = target: T2, murine SR-BI with the C384S mutation (Mus musculus, UniProt Q61009, C384S); experiment: Mutant SR-BI cholesterol efflux assay; format: cell-based; conditions: Cys384 converted to serine
T2 construct: expressed in transfected cells; host or cells: CHO cell line lacking LDL receptors, overexpressing C384S SR-BI
T2 sequence (Q61009 1-509 C384S): T1 sequence (Q61009 1-509) with C384S
Description: Mutant SR-BI Cholesterol Efflux Assay (SA 10: AID Nos. 588843, 602138)
BLT-1 is known to interact at cysteine 384 of SR-BI (16). […] This assay is used to determine if the compounds work in a similar fashion to BLT-1 and require Cys384 to alter the efflux of FC to HDL.
On Day 0, 50,000 cells expressing murine SR-BI with the C384S mutation per well were plated in 24-well plates. On the following day, the media was removed and [^3H]cholesterol in lipoprotein-deficient media was added. On Day 1, the medium was replaced with Ham's F12 medium supplemented with 10% bovine lipoprotein deficient serum, 1 μCi/ml [1,2-^3H]cholesterol (40-60 Ci/mmol). On Day 3, the cells were washed to remove serum and incubated in Ham's F12 plus 1% fatty acid-free BSA. On Day 4, the cells were washed and pretreated with compounds for 1 hour. Subsequently, the cells were incubated for an additional 2 hours with the same concentrations of small molecules and with unlabeled HDL (final HDL concentration of 100 μg protein/ml). […] The amount of [^3H]cholesterol in the medium and within cells was determined using liquid scintillation counting. Total cellular [^3H]cholesterol was calculated as the sum of the radioactivity in the efflux medium plus the radioactivity in the cells and was used to calculate the [^3H]cholesterol efflux (percent of total [^3H]cholesterol released into the medium).

Compound | reversibility of inhibition / activity after washout (in words) (SR-BI) | cytotoxicity (in words) (ldlA[mSR-BI] cells) | efflux of cholesterol in C384S mutant background (in words) [1] | reversibility of inhibition / activity after washout (in words) (SR-BI; listed as compound of Formula (II))
CCCCCCC1CCCC1=NNC(N)=S (stereo not shown) [BLT-1, reference compound] | nonreversible covalent modifier of SR-BI | extremely toxic to cells | cannot reduce uptake of HDL or efflux of cholesterol | –
C[C@H](C(=O)NC1CCCC1)N(C(=O)Cn1nnc(-c2ccc3c(c2)OCO3)n1)C1CCCCC1 [ML279, (R)-2-(2-(5-(Benzo[d][1,3]dioxol-5-yl)-2H-tetrazol-2-yl)-N-cyclohexylacetamido)-N-cyclopentylpropanamide] | reversible binder of SR-BI; also recorded: greatly attenuated; also recorded: reversible inhibitor of HDL uptake; also recorded: showed no inhibition | not cytotoxic; also recorded: no cytotoxicity at 24 hours | can reduce uptake and efflux in the mutant background | reversible inhibitor

Source: patent US9884851B2, “Heterocycle-bisamide inhibitors of scavenger receptor BI” (THE BROAD INSTITUTE, INC., priority 2012, dated 2018)
